By EC50 is commonly meant the concentration that produces a half-maximal response. In general, IC50 refers to the concentration that inhibits the measured activity by half. The term CC50 denotes the concentration at which the toxic effect on the cells reaches its halfway point.

Data set [1] relates to Human immunodeficiency virus 1. As to the kind of experiment: Antiviral activity against wild type HIV1 IIIB infected in human MT4 cells assessed as protection against virus-induced cytopathicity. It counts as functional, organism-based. As to conditions: Human immunodeficiency virus 1, IIIB. A general note: Protection from cytopathic effect is a common read-out in antiviral testing.

Data set [2] deals with Human immunodeficiency virus type 1 reverse transcriptase (Human immunodeficiency virus 1, UniProt Q72547). Kind of data set: Inhibition of wild type HIV-1 reverse transcriptase assessed as inhibition of biotin deoxyuridine triphosphate incorporation into […].
Data set [3] relates to Human immunodeficiency virus 1. As to the kind of experiment: Antiviral activity against HIV1 harboring E138K mutant infected in human MT4 cells assessed as protection against virus-induced cytopathicity. It counts as functional, organism-based. As to conditions: Human immunodeficiency virus 1, MT4.
In data set [4] the test system is Human immunodeficiency virus 1. Kind of data set: Antiviral activity against HIV1 harboring L100I mutant infected in human MT4 cells assessed as protection against virus-induced cytopathicity. Conditions: Human immunodeficiency virus 1, MT4. It counts as functional, organism-based.
The subject of data set [5] is Human immunodeficiency virus 1. As to the kind of experiment: Antiviral activity against HIV1 harboring K103 N mutant infected in human MT4 cells assessed as protection against virus-induced cytopathicity. As to conditions: Human immunodeficiency virus 1, MT4. It counts as functional, organism-based.
Data set [6] relates to Human immunodeficiency virus 1. Kind of data set: Antiviral activity against HIV1 harboring Y181C mutant infected in human MT4 cells assessed as protection against virus-induced cytopathicity. It counts as functional, organism-based. Conditions: Human immunodeficiency virus 1, MT4.
The subject of data set [7] is Human immunodeficiency virus 1. As to the kind of experiment: Antiviral activity against HIV1 harboring Y188L mutant infected in human MT4 cells assessed as protection against virus-induced cytopathicity. It is filed as functional, organism-based. Conditions: Human immunodeficiency virus 1, MT4.
Data set [8] can be described thus: Selectivity index, ratio of CC50 for cytotoxicity against human MT4 cells to EC50 for antiviral activity against wild type HIV1 IIIB infected in human MT4 cells. Conditions: read-out: Ratio CC50/EC50. It is filed as toxicity, cell-based.
Data set [9] in a line: Cytotoxicity against human MT4 cells assessed as reduction in cell viability. It counts as toxicity, cell-based.
In a further data set the target is Cytochrome P450 2D6 (Homo sapiens, UniProt P10635). As to the kind of experiment: Inhibition of CYP2D6 (unknown origin). It is filed as ADME.
Chain of Cytochrome P450 2D6 (P10635 whole entry): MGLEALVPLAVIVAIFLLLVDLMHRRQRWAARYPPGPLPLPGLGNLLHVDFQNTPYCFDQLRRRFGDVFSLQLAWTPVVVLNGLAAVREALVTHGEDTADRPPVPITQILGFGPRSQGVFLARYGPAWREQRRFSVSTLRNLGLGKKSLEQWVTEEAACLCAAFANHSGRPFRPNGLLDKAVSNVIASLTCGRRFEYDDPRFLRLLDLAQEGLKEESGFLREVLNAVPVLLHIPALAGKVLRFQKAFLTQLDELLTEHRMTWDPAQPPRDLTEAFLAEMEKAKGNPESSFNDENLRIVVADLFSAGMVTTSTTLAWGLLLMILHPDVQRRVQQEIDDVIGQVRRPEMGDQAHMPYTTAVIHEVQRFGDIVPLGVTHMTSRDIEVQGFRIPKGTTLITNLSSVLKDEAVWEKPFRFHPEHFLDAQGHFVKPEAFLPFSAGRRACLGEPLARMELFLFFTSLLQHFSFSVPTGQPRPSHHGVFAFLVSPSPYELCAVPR

With `Cc1ccc(Sc2c(C3CC3)c(=O)[nH]c(=O)n2COCc2ccccc2)c(C)c1`, the 50% effective concentration (EC50) in data set [1] is 4.75 µM; in [3], greater than 32.2 µM; in data set [4], 4.75 µM; in data set [5], greater than 32.2 µM; in data set [6], greater than 32.2 µM; in data set [7], greater than 32.2 µM. In addition, the half-inhibitory concentration (IC50) in data set [2] came to 5.39 µM. The selectivity ratio in data set [8] is 7. The CC50 in [9] amounted to 32.2 µM.
As for `O=c1[nH]c(=O)n(COCc2ccccc2)c(Sc2ccc(Br)cc2)c1C1CC1`, the concentration giving a half-maximal response (EC50) in [1] is 6.18 µM; in [3], 9.8 µM; in [4], 4.05 µM; in data set [5], greater than 25.9 µM; in data set [6], 4.11 µM; in data set [7], greater than 25.9 µM. The IC50 in data set [2] worked out at 3.92 µM. Also, the selectivity ratio in [8] is greater than 4. Besides, the cytotoxic concentration (CC50) in data set [9] is 25.9 µM.
For the compound `COc1ccccc1Sc1c(C2CC2)c(=O)[nH]c(=O)n1COCc1ccccc1`, the EC50 in data set [1] was 0.17 µM; in data set [3], 0.83 µM; in data set [4], 0.61 µM; in [5], no less than 9.28 µM; in data set [6] it was 3.82 µM; in [7], greater than 33.6 µM. Moreover, in [2], the IC50 was 0.56 µM. Besides, the selectivity ratio in [8] was 197. Moreover, in data set [9], the CC50 worked out at 33.6 µM.
Take `O=c1[nH]c(=O)n(COCc2ccccc2)c(Sc2ccccc2Br)c1C1CC1`: the 50% effective concentration (EC50) is 0.15 µM in data set [1]; 0.41 µM in data set [3]; 0.54 µM in data set [4]; 7.21 µM in data set [5]; 2.66 µM in data set [6]; greater than 27.2 µM in [7]. In data set [2], the IC50 is 0.16 µM. Besides, the selectivity ratio in data set [8] came to 184. In [9], the CC50 came to 27.2 µM.
Consider `Cc1ccccc1Sc1c(C2CC2)c(=O)[nH]c(=O)n1COCc1ccccc1`, for which the EC50 was 0.15 µM in [1]; 0.89 µM in [3]; 1.07 µM in data set [4]; greater than 7.96 µM in data set [5]; 5.35 µM in data set [6]; greater than 30.1 µM in data set [7]. Also, the IC50 in data set [2] is 0.3 µM. In addition, the selectivity ratio in data set [8] amounted to 203. Also, the CC50 in [9] stood at 30.1 µM.
With `O=c1[nH]c(=O)n(COCc2ccccc2)c(Sc2cc(Cl)cc(Cl)c2)c1C1CC1`, the concentration for a half-maximal effect (EC50) was found to be 0.073 µM in [1]; 0.45 µM in data set [3]; 0.4 µM in data set [4]; 2.74 µM in data set [5]; 1.71 µM in data set [6]; 7.7 µM in data set [7]. Besides, the IC50 in data set [2] turned out to be 0.11 µM. Besides, the selectivity ratio in [8] stood at 395. In addition, the CC50 in data set [9] came out at 28.7 µM.
Take `O=c1[nH]c(=O)n(COCc2ccccc2)c(Sc2ccc(Cl)cc2Cl)c1C1CC1`: the concentration giving a half-maximal response (EC50) in [1] was 5.3 µM; in data set [3] it was greater than 30 µM; in [4], 4.43 µM; in data set [5] it was greater than 30 µM; in data set [6], no less than 11.1 µM; in [7], greater than 30 µM. Besides, in data set [2], the half-maximal inhibitory concentration (IC50) was determined as 5.56 µM. The selectivity ratio in [8] came to 6. The CC50 in data set [9] came out at 34 µM.
Take `O=c1[nH]c(=O)n(COCc2ccccc2)c(Sc2ccc(Cl)cc2)c1C1CC1`: the half-maximal effective concentration (EC50) in data set [1] is 4.46 µM; in data set [3], greater than 30.3 µM; in data set [4] it was 4.48 µM; in data set [5] it was greater than 30.3 µM; in data set [6] it was 3.78 µM; in data set [7], greater than 30.3 µM. In addition, the half-inhibitory concentration (IC50) in [2] is 5.78 µM. Moreover, the selectivity ratio in [8] stood at 7. For the same compound, the CC50 in data set [9] stood at 30.2 µM.
Take `COc1cccc(Sc2c(C3CC3)c(=O)[nH]c(=O)n2COCc2ccccc2)c1`: the EC50 in data set [1] was 0.085 µM; in [3], 0.49 µM; in data set [4] it was 0.27 µM; in [5], 9.31 µM; in data set [6] it was 5.1 µM; in data set [7], greater than 33.1 µM. Also, the IC50 in data set [2] turned out to be 0.18 µM. Further, the selectivity ratio in [8] stood at 383. In [9], the CC50 came out at 33.1 µM.
`O=c1[nH]c(=O)n(COCc2ccccc2)c(Sc2c(Cl)cccc2Cl)c1C1CC1`: the half-maximal effective concentration (EC50) is 3.14 µM in data set [1]; 3.07 µM in data set [3]; 2.65 µM in data set [4]; greater than 22.9 µM in [5]; greater than 22.9 µM in data set [6]; greater than 22.9 µM in data set [7]. In addition, the 50% inhibitory concentration (IC50) in data set [2] stood at 4.23 µM. Further, the selectivity ratio in data set [8] was found to be 7. In addition, the half-maximal cytotoxic concentration (CC50) in data set [9] came to 22.9 µM.
`Cc1cc(C)cc(Sc2c(C3CC3)c(=O)[nH]c(=O)n2COCc2ccccc2)c1`: the EC50 in [1] stood at 0.023 µM; in data set [3], 0.14 µM; in data set [4] it was 0.13 µM; in data set [5], 1.05 µM; in [6] it was 1.03 µM; in [7], 3.75 µM. For the same compound, the half-maximal inhibitory concentration (IC50) in data set [2] is 0.08 µM. Further, the selectivity ratio in data set [8] was determined as 1480. Further, the half-maximal cytotoxic concentration (CC50) in [9] came out at 34 µM.
As for `O=c1[nH]c(=O)n(COCc2ccccc2)c(Sc2cccc(Cl)c2)c1C1CC1`, the concentration giving a half-maximal response (EC50) in data set [1] was 0.048 µM; in [3], 0.19 µM; in data set [4], 0.36 µM; in [5], 3.74 µM; in data set [6], 3.28 µM; in [7] it was greater than 29.7 µM. Further, in data set [2], the half-inhibitory concentration (IC50) was 0.06 µM. Further, the selectivity ratio in data set [8] was 613. Further, in data set [9], the CC50 stood at 29.7 µM.
For the compound `Cc1cccc(C)c1Sc1c(C2CC2)c(=O)[nH]c(=O)n1COCc1ccccc1`, the concentration giving a half-maximal response (EC50) was 4.36 µM in [1]; greater than 30.3 µM in data set [3]; greater than 7.42 µM in [4]; greater than 30.3 µM in data set [5]; greater than 30.3 µM in data set [6]; greater than 30.3 µM in [7]. Moreover, the concentration for half-maximal inhibition (IC50) in [2] amounted to 6.12 µM. Further, the selectivity ratio in data set [8] worked out at 7. Besides, the CC50 in [9] was determined as 30.3 µM.
Consider `O=c1[nH]c(=O)n(COCc2ccccc2)c(Sc2ccncc2)c1C1CC1`, for which the EC50 is 22.2 µM in data set [1]; 0.76 µM in data set [3]; 1.44 µM in [4]; 24 µM in [5]; 17.8 µM in data set [6]; greater than 167 µM in data set [7]. Moreover, the 50% inhibitory concentration (IC50) in [2] was found to be 0.63 µM. In addition, the selectivity ratio in data set [8] amounted to 8. Moreover, the 50% cytotoxic concentration (CC50) in data set [9] stood at 177 µM.
As for `O=c1[nH]c(=O)n(COCc2ccccc2)c(Sc2cccc(Br)c2)c1C1CC1`, the EC50 in [1] is 0.11 µM; in [3], 0.24 µM; in [4] it was 0.37 µM; in data set [5] it was 3.64 µM; in [6], 3.09 µM; in [7], greater than 26.5 µM. Moreover, in data set [2], the IC50 amounted to 0.07 µM. Moreover, the selectivity ratio in [8] was 239. In addition, in [9], the CC50 stood at 26.5 µM.
On to `O=c1[nH]c(=O)n(COCc2ccccc2)c(Sc2cc(Cl)ccc2Cl)c1C1CC1`, for which the EC50 is 0.029 µM in data set [1]; 0.07 µM in data set [3]; 0.12 µM in [4]; 1.51 µM in data set [5]; 0.51 µM in data set [6]; 7.92 µM in [7]. The IC50 in [2] turned out to be 0.03 µM. Also, the selectivity ratio in data set [8] worked out at 1140. For the same compound, the 50% cytotoxic concentration (CC50) in data set [9] came out at 33.9 µM.
As to `O=c1[nH]c(=O)n(COCc2ccccc2)c(Sc2cccc(Cl)c2Cl)c1C1CC1`, the concentration for a half-maximal effect (EC50) in data set [1] is 0.8 µM; in data set [3], 0.67 µM; in data set [4], 2.34 µM; in data set [5], greater than 27.4 µM; in data set [6], greater than 27.4 µM; in [7], greater than 27.4 µM. In addition, the IC50 in [2] is 1.22 µM. In [8], the selectivity ratio amounted to 34. Besides, the half-maximal cytotoxic concentration (CC50) in data set [9] is 27.4 µM.
For the compound `Cc1ccc(C)c(Sc2c(C3CC3)c(=O)[nH]c(=O)n2COCc2ccccc2)c1`, the EC50 was determined as 0.071 µM in data set [1]; 0.23 µM in data set [3]; 0.19 µM in [4]; 4.16 µM in data set [5]; 2.01 µM in data set [6]; 19.1 µM in [7]. Besides, the concentration for half-maximal inhibition (IC50) in [2] turned out to be 0.08 µM. In data set [8], the selectivity ratio is 1050. The CC50 in data set [9] was determined as 74.8 µM.
For the compound `O=c1[nH]c(=O)n(COCc2ccccc2)c(Sc2ccccn2)c1C1CC1`, the half-maximal effective concentration (EC50) is 0.17 µM in data set [1]; 0.25 µM in [3]; 0.39 µM in data set [4]; 6.12 µM in data set [5]; 3.99 µM in data set [6]; greater than 49.9 µM in data set [7]. Moreover, in data set [2], the half-inhibitory concentration (IC50) worked out at 0.11 µM. Moreover, the selectivity ratio in [8] was 1000. In addition, in data set [9], the CC50 was 167 µM.
Take `Cc1ccc(Sc2c(C3CC3)c(=O)[nH]c(=O)n2COCc2ccccc2)cc1`: the concentration giving a half-maximal response (EC50) was 2.59 µM in [1]; 10.2 µM in data set [3]; 2.05 µM in [4]; greater than 31.8 µM in data set [5]; 5.22 µM in data set [6]; greater than 31.8 µM in data set [7]. For the same compound, in data set [2], the half-inhibitory concentration (IC50) amounted to 3.8 µM. Also, the selectivity ratio in data set [8] is 12. Besides, the half-maximal cytotoxic concentration (CC50) in data set [9] worked out at 31.8 µM.
Turning to `COc1ccc2c(c1)[C@]13CCCC[C@@H]1[C@H](C2)N(C)CC3` [DEXTROMETHORPHAN], the concentration for half-maximal inhibition (IC50) on Cytochrome P450 2D6 amounted to 0.052 µM.

The values above are taken from ChEMBL document CHEMBL5331066, “Structure-guided design of novel HEPT analogs with enhanced potency and safety: From Isopropyl-HEPTs to Cyclopropyl-HEPTs” (Eur J Med Chem, 2023).
